For this test, the system named is citrus canker microbe (Xanthomonas axonopodis pv citri). As to the kind of experiment: Nursery experiment: compositions sprayed on fruit bearing citrus trees inoculated with citrus canker microbe. It counts as in vivo. As to the method:
In a nursery experiment, three antimicrobial compositions and a control composition were tested for activity against citrus canker microbe. The compositions were sprayed on fruit bearing citrus trees that had been inoculated with citrus canker microbe (Xanthomonas axonopodis pv citri). In these experiments composition A was the metal antimicrobial agent and poly(hexamethyl biguanide) composition and composition B was this composition plus copper ion.
The composition of metal antimicrobial agent and poly(hexamethyl biguanide) as used in compositions A and B included: water ([…]), poly(hexamethyl biguanide) (0.6 wt-%), and silver iodide (0.02 wt-%) Triton X-100 (2 wt-%), Tectronic 1107 (1.2 wt-%), 1-methyl-2-pyrrolidinone (0.3 wt-%), and ethanol (2.8 wt-%).
The antimicrobial composition was applied periodically and the plants were challenged with citrus canker microbe.

For the substance Copper, the “% OF HEALTHY LEAVES” value (Date 1) is on record as 82%, the “% OF HEALTHY LEAVES” value (Date 2) is recorded as 80.7% and the “% OF HEALTHY LEAVES” value (Date 4) was 84.7%. Moreover, the “% OF LEAVES WITH CANKER” value was 22.2% (Date 1), 18% (Date 2) and 17.59% (Date 4).

The record behind these values is patent US20060147549A1, “Methods and compositions for reducing population of plant pathogen” (priority 2004, published 2006).
